# Results: patent publication US20230146795A1, “ENHANCEMENT OF ANTI-TUMOR ACTIVITY OF SHP2 INHIBITOR PYRIMIDINONE IN COMBINATION WITH NOVEL CANCER MEDICINES IN CANCERS” (TAIHO PHARMACEUTICAL CO., LTD., priority 2020, published 2023)
# How the values were obtained:
# Assay type in all cases: cell-based
# [1] = system: MKN45; experiment: Anti-proliferation assay (CellTiter-Glo 2.0), combination index, MKN45
# Protocol: (§1) Cell lines were obtained from ATCC or Health Science Research Resources Bank.
# (§2) Each cell lines were collected by ordinary method, then suspended in indicated medium containing 10% fetal bovine serum in table 3. The number of cells seeded per well was set to 500 cells/20 μL. […] The concentration of each anti-cancer reagents set to 8 concentrations including 0 nM. After adding the medicine to the cells, the cells were further incubated at 37° C. for 3 days under 5% CO2. Cell survival rates were calculated by adding 20 μL of CellTiter-Glo(registered trademark) 2. 0 (Promega) solution to each well, incubating the cells at room temperature for 10 minutes, and then measuring the chemiluminescence intensity of each well using a plate reader (ARVO).
# (§3) A combination index (CI) value at each combined concentration of the medicines was determined.
# [2] = system: RT4; experiment: Anti-proliferation assay (CellTiter-Glo 2.0), combination index, RT4
# Protocol: as §1, §2, §3
# [3] = system: NCI-H358; experiment: Anti-proliferation assay (CellTiter-Glo 2.0), combination index, NCI-H358
# Protocol: as §1, §2, §3
# [4] = system: MV-4-11; experiment: Anti-proliferation assay (CellTiter-Glo 2.0), combination index, MV-4-11
# Protocol: as §1
# 384 well culture plate (781086, Greiner Bio-One International) was used for cell survival rate measurement assay. Each cell lines were collected by ordinary method, then suspended in indicated medium containing 10% fetal bovine serum in table 3. The number of cells seeded per well was set to 500 cells/20 μL. After incubation at 37° C. for 24 hours under 5% CO2, Compound 1 and additional compound having an antitumor effect or a vehicle (DMSO) was added to each well by using D300e Digital Dispenser (Tecan). The concentration of Compound 1 was set to 10 concentrations. The concentration of each anti-cancer reagents set to 8 concentrations including 0 nM. After adding the medicine to the cells, the cells were further incubated at 37° C. for 3 days under 5% CO2. Cell survival rates were calculated by adding 20 μL of CellTiter-Glo(registered trademark) 2. 0 (Promega) solution to each well, incubating the cells at room temperature for 10 minutes, and then measuring the chemiluminescence intensity of each well using a plate reader (ARVO).
# as §3
# [5] = Compound 1 13.7 + combination drug 370 nmol/L (1:27)
# [6] = Compound 1 41.2 + combination drug 1110 nmol/L (1:27)
# [7] = Compound 1 123 + combination drug 3330 nmol/L (1:27)
# [8] = Compound 1 370 + combination drug 10000 nmol/L (1:27)
# [9] = Compound 1:combination drug molar ratio 1:27
# [10] = Compound 1 1.52 + combination drug 123 nmol/L (1:81)
# [11] = Compound 1 13.7 + combination drug 1110 nmol/L (1:81)
# [12] = Compound 1 41.2 + combination drug 3330 nmol/L (1:81)
# [13] = Compound 1 123 + combination drug 10000 nmol/L (1:81)
# [14] = Compound 1 41.2 + combination drug 370 nmol/L (1:9)
# [15] = Compound 1 123 + combination drug 1110 nmol/L (1:9)
# [16] = Compound 1 370 + combination drug 3330 nmol/L (1:9)
# [17] = Compound 1 1110 + combination drug 10000 nmol/L (1:9)
# [18] = Compound 1:combination drug molar ratio 1:9
# [19] = Compound 1 123 + combination drug 370 nmol/L (1:3)
# [20] = Compound 1 370 + combination drug 1110 nmol/L (1:3)
# [21] = Compound 1 13.7 + combination drug 123 nmol/L (1:9)
# [22] = Compound 1 123 + combination drug 123 nmol/L (1:1)
# [23] = Compound 1 370 + combination drug 370 nmol/L (1:1)
# [24] = Compound 1 1110 + combination drug 1110 nmol/L (1:1)
# [25] = Compound 1 3330 + combination drug 3330 nmol/L (1:1)
# [26] = Compound 1 10000 + combination drug 10000 nmol/L (1:1)
# [27] = Compound 1 123 nmol/L + Doxorubicin 123 nmol/L, molar ratio 1:1
# [28] = Compound 1 370 nmol/L + Doxorubicin 370 nmol/L, molar ratio 1:1
# [29] = Compound 1 1110 nmol/L + Doxorubicin 1110 nmol/L, molar ratio 1:1
# [30] = Compound 1 41.2 nmol/L + Doxorubicin 13.7 nmol/L, molar ratio 1:0.3
# [31] = Compound 1 123 nmol/L + Doxorubicin 41.2 nmol/L, molar ratio 1:0.3
# [32] = Compound 1 370 nmol/L + Doxorubicin 123 nmol/L, molar ratio 1:0.3
# [33] = Compound 1 3330 nmol/L + Doxorubicin 1110 nmol/L, molar ratio 1:0.3
# [34] = Compound 1 10000 nmol/L + Doxorubicin 3330 nmol/L, molar ratio 1:0.3
# [35] = Compound 1 3330 nmol/L + Doxorubicin 370 nmol/L, molar ratio 1:0.1
# [36] = Compound 1 10000 nmol/L + Doxorubicin 1110 nmol/L, molar ratio 1:0.1
# [37] = Compound 1 4.57 + combination drug 123 nmol/L (1:27)
smiles,measurement,setting,value
Cc1nc(NC(=O)N2CCC[C@H]2C(N)=O)sc1-c1ccnc(C(C)(C)C(F)(F)F)c1 [Alpelisib],CI,[1]; [5],0.700
same,Fa,[1]; [5],0.1253
same,CI,[1]; [6],0.426
same,Fa,[1]; [6],0.4108
same,CI,[1]; [7],0.655
same,Fa,[1]; [7],0.5920
same,CI,[1]; [8],0.772
same,Fa,[1]; [8],0.8141
same,Description (combinatory effect by CI),[1]; [9],Synergy (0.3-0.7)
same,CI,[2]; [10],0.255
same,Fa,[2]; [10],0.0658
same,CI,[2]; [11],0.247
same,Fa,[2]; [11],0.2690
same,CI,[2]; [12],0.318
same,Fa,[2]; [12],0.4427
same,CI,[2]; [13],0.528
same,Fa,[2]; [13],0.5855
same,CI,[3]; [14],0.451
same,Fa,[3]; [14],0.1532
same,CI,[3]; [15],0.356
same,Fa,[3]; [15],0.4353
same,CI,[3]; [16],0.589
same,Fa,[3]; [16],0.5959
same,CI,[3]; [17],0.844
same,Fa,[3]; [17],0.7671
same,Description (combinatory effect by CI),[3]; [18],Synergy (0.3-0.7)
CC(C)Nc1cc(-c2c[nH]c(C(=O)N[C@H](CO)c3cccc(Cl)c3)c2)c(Cl)cn1 [Ulixertinib],CI,[1]; [19],0.483
same,Fa,[1]; [19],0.5887
same,CI,[1]; [20],0.644
same,Fa,[1]; [20],0.7816
same,Description (combinatory effect by CI),[1]; Compound 1:combination drug molar ratio 1:3,Synergy (0.3-0.7)
same,CI,[2]; [21],0.759
same,Fa,[2]; [21],0.1321
same,CI,[2]; [14],0.310
same,Fa,[2]; [14],0.3352
same,CI,[2]; [15],0.330
same,Fa,[2]; [15],0.4921
same,CI,[2]; [16],0.622
same,Fa,[2]; [16],0.5670
same,Description (combinatory effect by CI),[2]; [18],Synergy (0.3-0.7)
same,CI,[3]; [22],0.709
same,Fa,[3]; [22],0.2823
same,CI,[3]; [23],0.379
same,Fa,[3]; [23],0.5072
same,CI,[3]; [24],0.237
same,Fa,[3]; [24],0.7490
same,CI,[3]; [25],0.260
same,Fa,[3]; [25],0.8778
same,CI,[3]; [26],0.284
same,Fa,[3]; [26],0.9536
COc1cccc2c1C(=O)c1c(O)c3c(c(O)c1C2=O)C[C@@](O)(C(=O)CO)C[C@@H]3O[C@H]1C[C@H](N)[C@H](O)[C@H](C)O1 [Doxorubicin],CI,[1]; [27],0.596
same,Fa,[1]; [27],0.5818
same,CI,[1]; [28],0.267
same,Fa,[1]; [28],0.8738
same,CI,[1]; [29],0.361
same,Fa,[1]; [29],0.9317
same,CI,[2]; [30],0.866
same,Fa,[2]; [30],0.2952
same,CI,[2]; [31],0.403
same,Fa,[2]; [31],0.5056
same,CI,[2]; [32],0.554
same,Fa,[2]; [32],0.6537
same,CI,[2]; [33],0.191
same,Fa,[2]; [33],0.9964
same,CI,[2]; [34],0.063
same,Fa,[2]; [34],0.9999
same,CI,[3]; [35],0.845
same,Fa,[3]; [35],0.7275
same,CI,[3]; [36],0.249
same,Fa,[3]; [36],0.9706
CCc1cc2c(cc1N1CCC(N3CCOCC3)CC1)C(C)(C)c1[nH]c3cc(C#N)ccc3c1C2=O [Alectinib],CI,[1]; [6],0.905
same,Fa,[1]; [6],0.4310
same,CI,[1]; [8],0.542
same,Fa,[1]; [8],0.9801
same,Description (combinatory effect by CI),[1]; [9],Synergy (0.3-0.7)
same,CI,[4]; [37],0.829
same,Fa,[4]; [37],0.5762
same,CI,[4]; [5],0.484
same,Fa,[4]; [5],0.8852
same,CI,[4]; [6],0.609
same,Fa,[4]; [6],0.9534
same,CI,[4]; [7],0.187
same,Fa,[4]; [7],0.9967
same,CI,[4]; [8],0.631
same,Fa,[4]; [8],0.9962
